Read-outs that look alike come from different tables or passages of the source.
How the values were obtained:
PYCR3 [1] = target: T1, PYCR3 (Homo sapiens, UniProt Q53H96); test: Steady-state; format: biochemical; conditions: pH 7.5, 26°C
T1 sequence (Q53H96 11-274): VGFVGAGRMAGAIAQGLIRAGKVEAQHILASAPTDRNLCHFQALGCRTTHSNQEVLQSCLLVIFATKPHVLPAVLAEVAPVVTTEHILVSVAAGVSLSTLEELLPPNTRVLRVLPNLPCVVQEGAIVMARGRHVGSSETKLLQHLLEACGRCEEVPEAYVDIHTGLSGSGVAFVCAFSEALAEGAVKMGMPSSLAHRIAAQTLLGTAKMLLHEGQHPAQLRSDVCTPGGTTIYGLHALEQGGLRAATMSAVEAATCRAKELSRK

PYCR3 [2] = target: T1, PYCR3; test: Bi-substrate kinetic analysis of PYCR3, global fitting to bi bi models; format: biochemical; conditions: read-out: K^P5C, L-P5C on abscissa, L-P5C binds first, pH 7.5, 26°C
PYCR1 [3] = conditions: PYCR1, variable L-P5C, NADH = 175 μM; cited from earlier work
PYCR3 [4] = target: T1, PYCR3; test: Competitive; format: biochemical; conditions: pH 7.5, 26°C, NADH fixed at 175 μM
PYCR3 [5] = conditions: read-out: Ki of L-proline against PYCR3, previous estimate; cited from earlier work
PYCR3 [6] = target: T1, PYCR3; test: Single-point inhibition screen of proline analogs against PYCR3; format: biochemical; conditions: proline analog 5 mM, L-P5C 200 μM, NADH 175 μM
PYCR1 [7] = conditions: read-out: Ki against PYCR1; cited from earlier work
[8] = PYCR3, variable coenzyme, L-P5C = 400 μM
[9] = PYCR3, variable L-P5C, NADH = 175 μM
[10] = PYCR3, variable L-P5C, NADPH = 175 μM

NC(=O)C1=CN([C@@H]2O[C@H](COP(=O)(O)OP(=O)(O)OC[C@H]3O[C@@H](n4cnc5c(N)ncnc54)[C@H](O)[C@@H]3O)[C@@H](O)[C@H]2O)C=CC1 [NADH]
Km (PYCR3 [1]; [8]): 192 ± 8 µM | kcat (PYCR3 [1]; [8]): 235 ± 5 s⁻¹

O=C(O)C1CCC=N1 [L-P5C, Δ^1-pyrroline-5-carboxylate]
Km (PYCR3 [1]; [9]): 315 ± 65 µM | kcat (PYCR3 [1]; [9]): 146 ± 17 s⁻¹ | Km (PYCR3 [1]; [10]): 64 ± 48 µM | kcat (PYCR3 [1]; [10]): 48 ± 11 s⁻¹ | Kd (PYCR3 [2]; equilibrium compulsory ordered bi bi (Equation 2)): 1500 ± 700 µM | Kd (PYCR3 [2]; steady-state compulsory ordered bi bi (Equation 3)): 110 ± 70 µM | Km (PYCR1 [3]): 260 ± 63 µM | kcat (PYCR1 [3]): 51 ± 13 s⁻¹

O=C(O)[C@@H]1CCCN1 [Compound 17, L-proline]
Ki (PYCR3 [4]; Ki, apparent competitive (with L-P5C) inhibition constant): 5700 ± 600 µM | Ki (PYCR3 [5]): ~8000 µM

NC(=O)C1=CN([C@@H]2O[C@H](COP(=O)(O)OP(=O)(O)OC[C@H]3O[C@@H](n4cnc5c(N)ncnc54)[C@H](OP(=O)(O)O)[C@@H]3O)[C@@H](O)[C@H]2O)C=CC1 [NADPH]
Km (PYCR3 [1]; [8]): 45 ± 3 µM | kcat (PYCR3 [1]; [8]): 70 ± 2 s⁻¹

O=CN1CCC[C@H]1C(=O)O [Compound 2, N-formyl-L-proline]
catalytic activity compared to the control assay with no inhibitor (PYCR3 [6]): ≤ 50% | Ki (PYCR3 [4]; read-out: Ki, apparent competitive (with L-P5C) inhibition constant): 1200 ± 100 µM | Ki (PYCR1 [7]): 100 µM

Source: PMC9772221 (Archives of biochemistry and biophysics, 2022)
